pIC50, pKd: −log10 of the molar value. Where two headings read alike, the source gives them in different places.
How the values were obtained:
human RIPK3 = human RIPK3 (Homo sapiens (Human), UniProt Q9Y572); assay: KINOMEscan binding assay, human RIPK3; conditions: Table 21
Outline: (§1)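 Assay principle: test compound competes with immobilized bead ligand for kinase; kinase retained, then eluted, is counted by qPCR. Conditions were 1% DMSO final with 11 compound concentrations in 3-fold steps, 30,000 nM top for most. The Hill equation with slope −1 gave Kd.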

human MLKL (full length) = human MLKL (full length) (Homo sapiens (Human), UniProt Q8NB16); assay: KINOMEscan binding assay, human MLKL (full length)
Outline: as §1

human RIPK1 = human RIPK1 (Homo sapiens (Human), UniProt Q13546); assay: KINOMEscan binding assay, human RIPK1; conditions: Table 21
Outline: as §1

[1] = test system: Immortalised Mouse Dermal Fibroblasts (MDFs); assay: Cellular assay: inhibition of TSI induced necroptosis, CellTitre-Glo viability; conditions: Mus musculus, Fibroblast, MDF, 3 hours TSI cocktail, read-out: Inhibition of TSI-induced necroptosis (IC50 cell-based assay) in MDF
Outline: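 Necroptosis induced for 3 h with TSI: rhTNF 100 ng/ml, Smac mimetic 500 nM, caspase inhibitor IDN-6556 10 μM. Mouse dermal fibroblasts had received compound (36 μM top, ten three-fold steps) 30 min beforehand. ATP-based viability scaled between untreated and TSI-only wells; IC50 taken as 4-parameter curve inflection.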

endogenous MLKL in MDF = endogenous MLKL in MDF (Mus musculus (Mouse), UniProt Q9D2Y4); assay: Degradation assay: endogenous MLKL in MDF (western blot); conditions: MDF cells, 24 h incubation with compound, MLKL adjusted for loading with GAPDH, normalized to DMSO only control, read-out: Degradation of endogenous MLKL in MDF (DC50 cell-based assay)
Procedure: Degradation Assay: Screening Compounds Procedure to Evaluate the Activity of Compounds in Degrading Endogenous MLKL in Human and Mouse Cell
The mouse dermal fibroblast (MDF) cell line was seeded the day before the experiment in a 24-well plate at a cell density of […] per well in a volume of 0.5 mL per well and left to attach overnight. The human monocyte cell line (U937) was seeded on the day of the experiment in a 24-well plate at a cell density of […] per well in a volume of 0.5 mL per well.
The compound was diluted in DMSO with a starting concentration of 10 mM and titrated stepwise with a dilution of 1:5. 0.5 μL of the compound dilution was added to the appropriate well to achieve a final concentration of 10; 2; 0.4; 0.08 and 0.016 μM. A DMSO only well was included as control.
The cells were incubated for 24 h in the presence of the compound at 37° C. and 10% CO2.
After the 24 h incubation period, the medium was removed and cells washed with 0.5 mL PBS. The cells were then lysed directly in 60 μL of 1×SDS gel loading buffer.
The cell lysate was heat-denatured at […] for 10 min. 10 μL of lysate per well were run on 18-well 4-15% Criterion TGX stain free gels (BIO-RAD). The proteins were then transferred onto nitrocellulose membrane with a wet transfer protocol in the Criterion Blotter (BIO-RAD).
Membranes were blocked with 5% skim milk in TBST. Primary antibody against MLKL (clone 3H1, MABC604 Merck) was used at 1:2000 dilution in TBST with 1% BSA and left shaking over night at 4° C. After washes with TBST, the membranes were incubated with goat anti-rat IgG HRP-conjugated antibody (Southern Biotech) in 1% skim milk TBST at 1:10000 dilution for 1 h at room temperature. After TBST washes the bands were imaged on the ChemiDoc MP Imaging System (BIO-RAD) with Immobilion Western Chemiluminescent HRP Substrate Forte (Millipore). The loading control GAPDH was probed for with rabbit anti-GAPDH (CST 14C10) at 1:2000 dilution in 1% BSA TBST over night at 4° C. TBST washes were followed by incubation with goat anti-rabbit IgG HRP-conjugated antibody (Southern Biotech) in 1% skim milk TBST at 1:10000 dilution for 1 h at room temperature followed by TBST washes. The signal was detected as described above.
The band intensity was measured in the ImageLab Software (BIO-RAD) and the MLKL values adjusted for loading with GAPDH. The percentage of degradation was calculated by normalizing the compound treated values to the DMSO only control.

[2] = hMLKL, Table 25, read-out: MLKL (KD)

Chain of human MLKL (full length) (Q8NB16 whole entry): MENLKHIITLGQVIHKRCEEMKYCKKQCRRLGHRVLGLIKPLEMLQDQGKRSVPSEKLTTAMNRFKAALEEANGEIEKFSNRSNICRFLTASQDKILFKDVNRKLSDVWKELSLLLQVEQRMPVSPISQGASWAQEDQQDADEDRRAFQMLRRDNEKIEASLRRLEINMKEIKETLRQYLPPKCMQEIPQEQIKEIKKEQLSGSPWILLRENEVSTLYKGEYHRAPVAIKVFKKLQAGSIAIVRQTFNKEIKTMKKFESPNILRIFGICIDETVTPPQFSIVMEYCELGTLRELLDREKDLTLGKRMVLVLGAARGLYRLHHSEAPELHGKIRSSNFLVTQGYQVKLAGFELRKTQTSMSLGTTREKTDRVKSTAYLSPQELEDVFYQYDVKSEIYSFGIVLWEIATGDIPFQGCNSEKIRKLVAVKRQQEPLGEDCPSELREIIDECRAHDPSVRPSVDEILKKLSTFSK
Chain of endogenous MLKL in MDF (Q9D2Y4 whole entry): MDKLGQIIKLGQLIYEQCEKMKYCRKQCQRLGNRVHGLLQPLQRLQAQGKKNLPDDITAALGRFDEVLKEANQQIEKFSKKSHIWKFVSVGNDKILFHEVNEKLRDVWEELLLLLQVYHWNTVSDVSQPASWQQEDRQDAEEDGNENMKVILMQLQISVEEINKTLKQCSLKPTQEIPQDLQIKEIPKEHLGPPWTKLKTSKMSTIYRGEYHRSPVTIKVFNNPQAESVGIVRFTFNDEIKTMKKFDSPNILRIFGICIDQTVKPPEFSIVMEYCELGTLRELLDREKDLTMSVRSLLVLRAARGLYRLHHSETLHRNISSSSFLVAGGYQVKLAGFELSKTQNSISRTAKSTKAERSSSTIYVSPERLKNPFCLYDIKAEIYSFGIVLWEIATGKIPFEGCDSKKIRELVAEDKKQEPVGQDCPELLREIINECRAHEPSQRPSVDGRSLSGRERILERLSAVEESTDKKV
Chain of human RIPK3 (Q9Y572 whole entry): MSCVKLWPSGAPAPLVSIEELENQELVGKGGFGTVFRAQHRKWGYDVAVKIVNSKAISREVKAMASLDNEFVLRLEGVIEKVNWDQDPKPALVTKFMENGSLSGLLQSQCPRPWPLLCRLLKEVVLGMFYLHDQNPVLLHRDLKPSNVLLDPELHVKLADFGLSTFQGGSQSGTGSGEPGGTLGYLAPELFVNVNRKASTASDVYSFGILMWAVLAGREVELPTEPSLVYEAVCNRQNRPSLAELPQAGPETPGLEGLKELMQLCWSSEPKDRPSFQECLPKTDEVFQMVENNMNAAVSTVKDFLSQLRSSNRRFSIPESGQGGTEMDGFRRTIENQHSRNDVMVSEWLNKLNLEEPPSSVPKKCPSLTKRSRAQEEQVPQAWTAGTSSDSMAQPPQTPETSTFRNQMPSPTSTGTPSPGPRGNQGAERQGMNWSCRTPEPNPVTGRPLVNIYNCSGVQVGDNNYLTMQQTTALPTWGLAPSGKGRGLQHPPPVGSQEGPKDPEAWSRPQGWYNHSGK
Chain of human RIPK1 (Q13546 whole entry): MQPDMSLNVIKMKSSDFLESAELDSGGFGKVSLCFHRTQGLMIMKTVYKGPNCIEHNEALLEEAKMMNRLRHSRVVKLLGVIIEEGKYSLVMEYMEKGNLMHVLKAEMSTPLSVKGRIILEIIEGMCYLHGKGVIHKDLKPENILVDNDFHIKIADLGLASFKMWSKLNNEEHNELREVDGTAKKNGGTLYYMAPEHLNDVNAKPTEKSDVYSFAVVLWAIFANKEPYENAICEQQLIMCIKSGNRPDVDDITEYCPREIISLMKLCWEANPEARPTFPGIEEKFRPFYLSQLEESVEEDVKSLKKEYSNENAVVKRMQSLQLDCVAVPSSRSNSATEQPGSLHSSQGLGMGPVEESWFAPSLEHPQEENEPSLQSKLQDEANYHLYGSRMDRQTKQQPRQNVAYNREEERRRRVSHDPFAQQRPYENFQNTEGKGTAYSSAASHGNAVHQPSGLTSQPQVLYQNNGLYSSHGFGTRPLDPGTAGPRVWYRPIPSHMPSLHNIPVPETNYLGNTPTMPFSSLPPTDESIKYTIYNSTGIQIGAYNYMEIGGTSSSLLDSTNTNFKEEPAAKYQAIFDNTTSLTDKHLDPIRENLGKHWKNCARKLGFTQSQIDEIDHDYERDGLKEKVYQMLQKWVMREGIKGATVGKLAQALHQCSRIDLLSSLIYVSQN

Q: With C[C@H](Oc1cc(-c2nn(C)c3c(-c4cnn(C5CCC(N(C)C)C5)c4)cnc(N)c23)ccc1NS(=O)(=O)C(F)F)c1ccc(F)cc1 (stereo partly drawn) [Compound 168, N-(4-(4-amino-7-(1-(3-(dimethylamino)cyclopentyl)-1H-pyrazol-4-yl)-1-methyl-1H-pyrazolo[4,3-c]pyridin-3-yl)-2-((S)-1-(4-fluorophenyl)ethoxy)phenyl)-1,1-difluoromethanesulfonamide] as the compound, how does the pKd (human RIPK3) read?
A: Its pKd is less than 5.00.

Q: And the pKd (human MLKL (full length); KINOMEscan, Table 21, read-out: Human MLKL (full-length) (KD))?
A: The pKd was greater than 9.00.

Q: And the pKd (human RIPK1)?
A: Its pKd is less than 5.00.

Q: What about the pIC50 ([1]; Table 24) of the same compound?
A: The pIC50 was greater than 6.00.

Q: For Cc1ncsc1-c1ccc(CNC(=O)[C@@H]2C[C@@H](O)CN2C(=O)[C@@H](NC(=O)CCCCCCC#Cc2cnc(N)c3c(-c4ccc(NS(=O)(=O)C(F)F)c(O[C@@H](C)c5ccc(F)cc5)c4)nn(C)c23)C(C)(C)C)cc1 [Compound 1027, (2S,4R)-1-[(2S)-2-(9-{4-amino-3-[4-(difluoromethanesulfonamido)-3-[(1S)-1-(4-fluorophenyl)ethoxy]phenyl]-1-methyl-1H-pyrazolo[4,3-c]pyridin-7-yl}non-8-ynamido)-3,3-dimethylbutanoyl]-4-hydroxy-N-{[4-(4-methyl-1,3-thiazol-5-yl)phenyl]methyl}pyrrolidine-2-carboxamide], which DC50 (endogenous MLKL in MDF) is on record?
A: The DC50 was 1 to 10 µM.

Q: Which DC50 (endogenous MLKL in MDF) does the source give for Cc1ncsc1-c1ccc(CNC(=O)[C@@H]2C[C@@H](O)CN2C(=O)[C@@H](NC(=O)CCCCCCCCC#Cc2cnc(N)c3c(-c4ccc(NS(=O)(=O)C(F)F)c(O[C@@H](C)c5ccc(F)cc5)c4)nn(C)c23)C(C)(C)C)cc1 [Compound 1028, (2S,4R)-1-[(2S)-2-(11-{4-amino-3-[4-(difluoromethanesulfonamido)-3-[(1S)-1-(4-fluorophenyl)ethoxy]phenyl]-1-methyl-1H-pyrazolo[4,3-c]pyridin-7-yl}undec-10-ynamido)-3,3-dimethylbutanoyl]-4-hydroxy-N-{[4-(4-methyl-1,3-thiazol-5-yl)phenyl]methyl}pyrrolidine-2-carboxamide] here?
A: Its DC50 is 1 to 10 µM.

Q: With Cc1ncsc1-c1ccc(CNC(=O)[C@@H]2C[C@@H](O)CN2C(=O)[C@@H](NC(=O)c2cccc(OCCn3cc(-c4cnc(N)c5c(-c6ccc(NS(=O)(=O)C(F)F)c(O[C@@H](C)c7ccc(F)cc7)c6)nn(C)c45)cn3)c2)C(C)(C)C)cc1 [Compound 1039, (2S,4R)-1-[(2S)-2-({3-[2-(4-{4-amino-3-[4-(difluoromethanesulfonamido)-3-[(1S)-1-(4-fluorophenyl)ethoxy]phenyl]-1-methyl-1H-pyrazolo[4,3-c]pyridin-7-yl}-1H-pyrazol-1-yl)ethoxy]phenyl}formamido)-3,3-dimethylbutanoyl]-4-hydroxy-N-{[4-(4-methyl-1,3-thiazol-5-yl)phenyl]methyl}pyrrolidine-2-carboxamide] as the compound, how does the pKd (human MLKL (full length); [2]) read?
A: The pKd was 6.00 to 8.00.

Q: What about the DC50 (endogenous MLKL in MDF) of the same compound?
A: The DC50 was 1 to 10 µM.

Q: Cc1ncsc1-c1ccc(CNC(=O)[C@@H]2C[C@@H](O)CN2C(=O)[C@@H](NC(=O)C2(F)CC2)C(C)(C)C)c(OCCCCCCCCn2cc(-c3cnc(N)c4c(-c5ccc(NS(=O)(=O)C(F)F)c(O[C@@H](C)c6ccc(F)cc6)c5)nn(C)c34)cn2)c1 [Compound 1045, (2S,4R)-N-[(2-{[8-(4-{4-amino-3-[4-(difluoromethanesulfonamido)-3-[(1S)-1-(4-fluorophenyl)ethoxy]phenyl]-1-methyl-1H-pyrazolo[4,3-c]pyridin-7-yl}-1H-pyrazol-1-yl)octyl]oxy}-4-(4-methyl-1,3-thiazol-5-yl)phenyl)methyl]-1-[(2S)-2-[(1-fluorocyclopropyl)formamido]-3,3-dimethylbutanoyl]-4-hydroxypyrrolidine-2-carboxamide] was tested. Which pKd (human MLKL (full length); [2]) did it give?
A: The pKd was 6.00 to 8.00.

Q: What about the DC50 (endogenous MLKL in MDF) of the same compound?
A: Its DC50 is less than 1 µM.

Q: With Cn1nc(-c2ccc(NS(=O)(=O)C(F)F)c(F)c2)c2c(N)ncc(-c3cnn(CCCCCCCOc4cccc5c4C(=O)N(C4CCC(=O)NC4=O)C5=O)c3)c21 (centres unmarked) [Compound 1060, N-(4-{4-amino-7-[1-(7-{[2-(2,6-dioxopiperidin-3-yl)-1,3-dioxo-2,3-dihydro-1H-isoindol-4-yl]oxy}heptyl)-1H-pyrazol-4-yl]-1-methyl-1H-pyrazolo[4,3-c]pyridin-3-yl}-2-fluorophenyl)-1,1-difluoromethanesulfonamide] as the compound, how does the pKd (human MLKL (full length); [2]) read?
A: Its pKd is greater than 8.00.

Q: And the DC50 (endogenous MLKL in MDF)?
A: Its DC50 is 1 to 10 µM.

Q: For C[C@H](Oc1cc(-c2nn(C)c3c(-c4cnn(CCCCCCCOc5cccc6c5C(=O)N(C5CCC(=O)N(C)C5=O)C6=O)c4)cnc(N)c23)ccc1NS(=O)(=O)C(F)F)c1ccc(F)cc1 (stereo partly drawn) [Compound 1100, N-(4-{4-amino-1-methyl-7-[1-(7-{[2-(1-methyl-2,6-dioxopiperidin-3-yl)-1,3-dioxo-2,3-dihydro-1H-isoindol-4-yl]oxy}heptyl)-1H-pyrazol-4-yl]-1H-pyrazolo[4,3-c]pyridin-3-yl}-2-[(1S)-1-(4-fluorophenyl)ethoxy]phenyl)-1,1-difluoromethanesulfonamide], which DC50 (endogenous MLKL in MDF) is on record?
A: Its DC50 is less than 1 µM.

Q: Which DC50 (endogenous MLKL in MDF) does the source give for C[C@H](Oc1cc(-c2nn(C)c3c(-c4cnn(C5CCN(C(=O)[C@]67C[C@](Nc8cccc9c8C(=O)N(C8CCC(=O)NC8=O)C9=O)(C6)C7)CC5)c4)cnc(N)c23)ccc1NS(=O)(=O)C(F)F)c1ccc(F)cc1 (stereo partly drawn) [Compound 1118, N-[4-(4-amino-7-{1-[1-(3-{[2-(2,6-dioxopiperidin-3-yl)-1,3-dioxo-2,3-dihydro-1H-isoindol-4-yl]amino}bicyclo[1.1.1]pentane-1-carbonyl)piperidin-4-yl]-1H-pyrazol-4-yl}-1-methyl-1H-pyrazolo[4,3-c]pyridin-3-yl)-2-[(1S)-1-(4-fluorophenyl)ethoxy]phenyl]-1,1-difluoromethanesulfonamide] here?
A: Its DC50 is less than 1 µM.

Q: For C[C@H](Oc1cc(-c2nn(C)c3c(-c4cnn(C5CCN(CCn6cc(CCNc7cccc8c7C(=O)N(C7CCC(=O)NC7=O)C8=O)nn6)CC5)c4)cnc(N)c23)ccc1NS(=O)(=O)C(F)F)c1ccc(F)cc1 (some centres unmarked) [Compound 1128, N-(4-{4-amino-7-[1-(1-{2-[4-(2-{[2-(2,6-dioxopiperidin-3-yl)-1,3-dioxo-2,3-dihydro-1H-isoindol-4-yl]amino}ethyl)-1H-1,2,3-triazol-1-yl]ethyl}piperidin-4-yl)-1H-pyrazol-4-yl]-1-methyl-1H-pyrazolo[4,3-c]pyridin-3-yl}-2-[(1 S)-1-(4-fluorophenyl)ethoxy]phenyl)-1,1-difluoromethanesulfonamide], which DC50 (endogenous MLKL in MDF) is on record?
A: Its DC50 is less than 1 µM.

Q: What about the pIC50 ([1]; Table 27) of the same compound?
A: Its pIC50 is greater than 6.00.

Q: C[C@H](Oc1cc(-c2nn(C)c3c(-c4cnn(C5CCN(CCc6cn(CCNc7cccc8c7C(=O)N(C7CCC(=O)NC7=O)C8=O)nn6)CC5)c4)cnc(N)c23)ccc1NS(=O)(=O)C(F)F)c1ccc(F)cc1 (some centres unmarked) [Compound 1135, N-(4-{4-amino-7-[1-(1-{2-[1-(2-{[2-(2,6-dioxopiperidin-3-yl)-1,3-dioxo-2,3-dihydro-1H-isoindol-4-yl]amino}ethyl)-1H-1,2,3-triazol-4-yl]ethyl}piperidin-4-yl)-1H-pyrazol-4-yl]-1-methyl-1H-pyrazolo[4,3-c]pyridin-3-yl}-2-[(1 S)-1-(4-fluorophenyl)ethoxy]phenyl)-1,1-difluoromethanesulfonamide] was tested. Which DC50 (endogenous MLKL in MDF) did it give?
A: Its DC50 is 1 to 10 µM.

— patent US20250115598A1 (Anaxis Pharma Pty Ltd, priority 2021, published 2025)
